# Source: patent publication US7709458B2, “Method for inhibiting cancer cell proliferation or increasing cancer cell apoptosis” (priority 2004, dated 2010)
# “Also recorded” adds a separate entry of the source. Like-named read-outs stand apart in the source and are kept apart here.
# How the values were obtained:
# CD1 mice = test: Lethality in CD1 mice; conditions: 50 μl of 200 μM c-di-GMP, after 24 h
# [1] = tested on: NRK 52E cells (normal rat kidney cells); test: Cytotoxicity on normal rat kidney cells using the Alamar blue assay; assay type: cell-based; conditions: for decrease in fluorescence: 200 μM
# Procedure: Toxicity assays in normal rat kidney cells (NRK). The toxicity of c-di-GMP in independent cell lines was tested. In these studies, acute (24 and 72 h) toxicity in NRK 52 E cells (normal rat kidney cells) was determined using the Alamar blue assay. NRK 52E cells are a rat renal tubule epithelial cell line originally cloned from a mixed culture termed NRK. The Alamar blue assay is designed to measure the proliferation of cell lines and is used routinely to determine the cytotoxicity of various chemicals. […] It is minimally toxic to most living cells.
# Chemical toxicity on normal rat kidney cells. To assess chemical toxicity, the Alamar blue assay was performed using NRK 52E cells plated at near confluence in 96-well tissue culture plates (Costar). Cells were maintained in DMEM containing 10% FBS and penicillin/streptomycin in tissue culture flasks. Cells were harvested by trypsinization, resuspended in the basal medium and counted. NRK 52E cells were plated at a density of 4-5×10^4 cells/well. After a 24-h attachment/acclimation interval, the tissue culture media was aspirated and replaced with the appropriate test solution. For most experiments, 8 wells were used for each solution, i.e., each solution was tested in one column of 8 replicate wells. […] Plates were incubated for 24 or 72 h and observed under phase contrast microscopy. All solutions were aspirated and replaced with fresh DMEM containing Alamar blue dye (10% vol/vol). Plates were incubated at 37° C. for an additional 6 h after which fluorescence was measured using a fluorimetric plate reader (Cytofluor). Data were collected as raw fluorescence units and expressed as a percentage of the solvent control using average values from all 8 wells for each group (mean fluorescence test/mean fluorescence control×100=% control fluorescence).
# (§1) Cell proliferation assay on normal rat kidney cells. To assess potential effects on cell proliferation, the Alamar blue assay was performed using NRK 52E cells. Cells were harvested as described for the toxicity assay and seeded in 96-well tissue culture plates at a density of about 3×10^3 cells/well and evaluated over a 96-h time frame. Cells were allowed to attach for 3 h in the basal, serum-containing DMEM medium. After attachment, the media was aspirated and replaced with test solutions according to the design described for the toxicity assay with the addition of the Alamar blue dye to each solution (as 10% vol/vol). The reduction of Alamar blue dye was measured in a fluorimetric plate reader (Cytofluor) at 24, 48, 72 and 96 h. Morphological observation was also performed to ensure that the cell patterns matched the fluorescence data. Data were collected as raw fluorescence units and expressed as a percentage of the solvent control using the average values from all 8 wells used for each group (mean fluorescence test/mean fluorescence control×100=% control fluorescence) at each time period. As a further check to ensure that Alamar blue was not itself exerting some growth or inhibitory effects the experiments were also performed by plating cells at the lower density with exposures for 72 h without Alamar blue in the media. After the 72-h growth period, the media was aspirated and fresh DMEM containing Alamar blue (10% vol/vol) was added to all wells. Cells were further incubated in the Alamar blue solution for 6 h and fluorescence measured and data collected and expressed as described.
# [2] = tested on: H508 human colon cancer cells; test: H508 colon cancer cell proliferation assay (sulforhodamine B colorimetric assay); assay type: cell-based; conditions: for effect on EGF-induced H508 cell proliferation: EGF 1 ng/ml; for effect on acetylcholine-induced H508 cell proliferation: acetylcholine 300 μM
# Procedure: H508 colon cancer cell culture. H508 human colon cancer cells were grown in RPMI 1640 (ATCC) supplemented with 10% fetal bovine serum (FBS) (Biowhittaker). Adherent cultures were passaged weekly at subconfluence after trypsinization. Cultures were maintained in incubators at 37° C. in an atmosphere of 5% CO2 and 95% air.
# H508 colon cancer cell proliferation assay. Cell proliferation was determined using the sulforhodamine B (SRB) colorimetric assay (Skehan et al., 1990). Cells were seeded in 96-well plates (Corning Glass Works, Corning, N.Y.) at approx. 10% confluence and allowed to attach for 24 h. Growth medium was removed and fresh medium without FBS and containing the indicated concentration of test agent was added. Cells were incubated for the indicated periods of time at 37° C. in an atmosphere of 5% CO2 and 95% air. After incubation, cells were treated for 30 min with 0.4% (w/v) SRB dissolved in 1% acetic acid. Protein-bound dye was extracted with unbuffered 10 mM Tris base. Absorbance was measured at 560 nm using a computer-interfaced, 96-well microtiter plate reader.
# c-di-GMP inhibits proliferation of human colon cancer cells. The potential therapeutic actions of c-di-GMP were examined on basal and growth factor-stimulated proliferation of cells derived from a moderately differentiated human cecal adenocarcinoma (H508 cells) that express M3 muscarinic (M3R) and epidermal growth factor (EGF) receptors (EGFR) (Cheng et al., 2003). Cell proliferation was determined using the validated sulforhodamine B (SRB) calorimetric assay (Skehan et al., 1990). H508 cells were incubated in the absence or presence of a growth stimulant, acetylcholine (300 μM) and EGF (1 ng/ml) alone or with increasing concentrations of c-di-GMP (0.5-50 μM). After a 5-day incubation, the highest concentration of c-di-GMP tested, 50 μM, reduced basal H508 cell proliferation by approx. 15% (FIG. 1; p<0.05 compared to control, Student's unpaired t-test).
# [3] = tested on: H508 human colon cancer cells; test: as above; assay type: cell-based; conditions: 50 μM
# [4] = tested on: p44/42 (ERK1/2) mitogen-activated protein kinase (MAPK) cascade; test: Acetylcholine- and EGF-induced activation of p44/42 MAPK signaling in H508 cells; assay type: cell-based, human
# [5] = Solubility and stability of c-di-GMP; assay type: physicochemical
# [6] = tested on: NRK 52E cells (normal rat kidney cells); test: Cell proliferation assay on normal rat kidney cells (Alamar blue, 24-96 h); assay type: cell-based
# Procedure: as §1
# [7] = increasing concentrations 0.5-50 μM, 5 days
compound,measurement,setting,value
"Nc1nc(=O)c2ncn([C@@H]3OC4COP(=O)(O)O[C@H]5[C@@H](O)[C@H](n6cnc7c(=O)nc(N)[nH]c76)O[C@@H]5COP(=O)(O)OC4C3O)c2[nH]1 (some centres unmarked) [c-di-GMP, Bis(3′-->5′)-cyclic diguanylic acid]",lethality,CD1 mice,non-lethal
same,decrease in fluorescence,[1]; 72 h confluent cells,36%
same,decrease in fluorescence,[1]; 72 h non-confluent cells,14%
same,toxicity on normal rat kidney cells,"[1]; 400 μM, 24 h",nontoxic
same,fluorescence relative to the solvent control,"[1]; 20, 40, 100 μM",no decease in fluorescence relative to the solvent control
same,toxicity on NRK cells,"[1]; 200 and 400 μM, 72 h exposure",toxicity was observed
same,cytotoxicity on NRK cells,[1]; 24 h exposure,little evidence of cytotoxicity
same,cytotoxicity on normal rat kidney cells,[1]; all relevant biological concentrations / biologically relevant doses,no cytotoxicity
same,Fluorescence (% control),"[1]; c-di-GMP 20 μM, 24-h confluent",98.5 % control
same,Fluorescence (% control),"[1]; c-di-GMP 20 μM, 72-h confluent",98.0 % control
same,Fluorescence (% control),"[1]; c-di-GMP 20 μM, 72-h non-confluent",97.0 % control
same,Fluorescence (% control),"[1]; c-di-GMP 40 μM, 24-h confluent",99.4 % control
same,Fluorescence (% control),"[1]; c-di-GMP 40 μM, 72-h confluent",98.0 % control
same,Fluorescence (% control),"[1]; c-di-GMP 40 μM, 72-h non-confluent",99.0 % control
same,Fluorescence (% control),"[1]; c-di-GMP 100 μM, 24-h confluent",99.7 % control
same,Fluorescence (% control),"[1]; c-di-GMP 100 μM, 72-h confluent",92.2 % control
same,Fluorescence (% control),"[1]; c-di-GMP 200 μM, 24-h confluent",101.6 % control
same,Fluorescence (% control),"[1]; c-di-GMP 200 μM, 72-h confluent",64.2 % control
same,Fluorescence (% control),"[1]; c-di-GMP 200 μM, 72-h non-confluent",86.0 % control
same,Fluorescence (% control),"[1]; c-di-GMP 400 μM, 24-h confluent",96.2 % control
same,Fluorescence (% control),"[1]; c-di-GMP 400 μM, 72-h confluent",40.0 % control
same,Fluorescence (% control),"[1]; c-di-GMP 400 μM, 72-h non-confluent",3.0 % control
same,effect on basal H508 cell proliferation,"[2]; 50 μM, 5 days incubation",inhibited
same,effect on EGF-induced H508 cell proliferation,"[2]; 50 μM, 5 days",reduced to basal levels
same,effect on acetylcholine-induced H508 cell proliferation,"[2]; 50 μM, 5 days",reduced to basal levels
same,reduction of basal H508 cell proliferation,"[2]; 50 μM, basal (no stimulant), 5-day incubation",approx. 15%
same,effect on EGF-induced H508 cell proliferation,[2]; [7],inhibit; also recorded: progressively inhibited
same,effect on acetylcholine-induced H508 cell proliferation,[2]; [7],inhibit; also recorded: progressively inhibited
same,effect on basal H508 cell proliferation,"[2]; increasing concentrations, 5 days (FIG. 1)",inhibit
same,effect on basal H508 cell proliferation,"[2]; lower concentrations (below 50 μM), 5 days",did not significantly alter basal proliferation; also recorded: did not alter basal cell proliferation
same,apoptosis of H508 cells by microscopic examination,[3],not observed by microscopic examination
same,effect on EGF-induced activation (phosphorylation) of p44/42 MAPK,[4],did not alter
same,effect on acetylcholine-induced activation (phosphorylation) of p44/42 MAPK,[4],did not alter
same,effect on EGF-induced activation (phosphorylation) of p44/42 MAPK,[4]; listed as cyclic-di-GMP,do not inhibit
same,effect on acetylcholine-induced activation (phosphorylation) of p44/42 MAPK,[4]; listed as cyclic-di-GMP,do not inhibit
same,stability,[5]; physiological conditions,stable
same,solubility,[5]; water physiological saline,soluble
same,"fluorescence (% of control), NRK cell proliferation","[6]; 100 μM, 48 h",75 % of control fluorescence
same,"fluorescence (% of control), NRK cell proliferation","[6]; 100 μM, 72 h",87 % of control fluorescence
same,"fluorescence (% of control), NRK cell proliferation","[6]; 100 μM, 96 h",94 % control fluorescence
same,"fluorescence (% of control), NRK cell proliferation","[6]; 200 μM, 96 h",85 % of control
same,NRK cell proliferation,"[6]; 200 μM, up to 96 h",retardation of cell proliferation that was much less pronounced than the 400-μM dose
same,NRK cell proliferation,"[6]; 400 μM, 96-h period of exposure",little growth over the 96-h period of exposure
same,NRK cell proliferation,"[6]; 5, 25 or 50 μM (data not shown)",not altered
